The target of one assay is T1, pSTAT3 (pY705-STAT3) (Homo sapiens, UniProt P40763).
T1 construct: host or cells: cryopreserved PBMC
The assay can be described thus: MSD-pSTAT-PBMC Assay (pSTAT3, IL-6 stimulated). In kind it is cell-based. The conditions noted are these: PBMC, compound 3 hrs, then 10 ng/mL IL-6 for 10 min; MSD pY705-STAT3; read-out: pSTAT3. A digest of the protocol: (§1)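 Human PBMCs (50,000 cells/well for STAT3, 25,000 for STAT6) treated with compound 3 h, then stimulated 10 min with 10 ng/mL IL-6 or 1 ng/mL IL-4. Lysate pSTAT3 (pY705) or pSTAT6 (pY641) measured by MSD sandwich electrochemiluminescence. Signal minus unstimulated, normalized to DMSO; IC50 by variable-slope nonlinear regression.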

In a further assay the target is T2, pSTAT6 (pY641-STAT6) (Homo sapiens, UniProt P42226).
T2 construct: host or cells: cryopreserved PBMC
T2 sequence (P42226 1-847): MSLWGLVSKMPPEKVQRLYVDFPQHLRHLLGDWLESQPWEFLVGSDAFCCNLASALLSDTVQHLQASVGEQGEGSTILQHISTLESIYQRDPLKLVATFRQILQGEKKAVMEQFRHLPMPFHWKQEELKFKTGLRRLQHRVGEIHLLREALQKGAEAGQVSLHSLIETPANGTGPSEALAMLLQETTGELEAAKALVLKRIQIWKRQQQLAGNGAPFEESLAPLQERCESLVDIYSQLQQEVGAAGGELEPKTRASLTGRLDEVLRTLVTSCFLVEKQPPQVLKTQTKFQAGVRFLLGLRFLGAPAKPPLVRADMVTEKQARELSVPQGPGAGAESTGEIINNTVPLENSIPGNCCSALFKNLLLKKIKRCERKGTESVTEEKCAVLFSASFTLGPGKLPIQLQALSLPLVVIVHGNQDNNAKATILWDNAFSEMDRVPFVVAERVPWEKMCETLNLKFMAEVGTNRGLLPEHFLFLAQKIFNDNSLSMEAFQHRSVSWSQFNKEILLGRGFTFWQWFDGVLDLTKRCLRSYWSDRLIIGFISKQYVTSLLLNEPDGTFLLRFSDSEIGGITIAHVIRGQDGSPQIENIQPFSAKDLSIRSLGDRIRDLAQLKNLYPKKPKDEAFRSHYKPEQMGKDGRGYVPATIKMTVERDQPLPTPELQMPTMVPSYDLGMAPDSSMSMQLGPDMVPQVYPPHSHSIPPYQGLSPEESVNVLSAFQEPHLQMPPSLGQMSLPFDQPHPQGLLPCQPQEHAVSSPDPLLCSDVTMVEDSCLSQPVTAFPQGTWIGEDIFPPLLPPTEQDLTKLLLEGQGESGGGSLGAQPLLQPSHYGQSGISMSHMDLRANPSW
The assay can be described thus: MSD-pSTAT-PBMC Assay (pSTAT6, IL-4 stimulated). Format: cell-based. The following applies: compound 3 hrs, then 1 ng/mL IL-4 for 10 min. A digest of the protocol:
as §1

Structures are written as SMILES.

T1 sequence (P40763 whole entry): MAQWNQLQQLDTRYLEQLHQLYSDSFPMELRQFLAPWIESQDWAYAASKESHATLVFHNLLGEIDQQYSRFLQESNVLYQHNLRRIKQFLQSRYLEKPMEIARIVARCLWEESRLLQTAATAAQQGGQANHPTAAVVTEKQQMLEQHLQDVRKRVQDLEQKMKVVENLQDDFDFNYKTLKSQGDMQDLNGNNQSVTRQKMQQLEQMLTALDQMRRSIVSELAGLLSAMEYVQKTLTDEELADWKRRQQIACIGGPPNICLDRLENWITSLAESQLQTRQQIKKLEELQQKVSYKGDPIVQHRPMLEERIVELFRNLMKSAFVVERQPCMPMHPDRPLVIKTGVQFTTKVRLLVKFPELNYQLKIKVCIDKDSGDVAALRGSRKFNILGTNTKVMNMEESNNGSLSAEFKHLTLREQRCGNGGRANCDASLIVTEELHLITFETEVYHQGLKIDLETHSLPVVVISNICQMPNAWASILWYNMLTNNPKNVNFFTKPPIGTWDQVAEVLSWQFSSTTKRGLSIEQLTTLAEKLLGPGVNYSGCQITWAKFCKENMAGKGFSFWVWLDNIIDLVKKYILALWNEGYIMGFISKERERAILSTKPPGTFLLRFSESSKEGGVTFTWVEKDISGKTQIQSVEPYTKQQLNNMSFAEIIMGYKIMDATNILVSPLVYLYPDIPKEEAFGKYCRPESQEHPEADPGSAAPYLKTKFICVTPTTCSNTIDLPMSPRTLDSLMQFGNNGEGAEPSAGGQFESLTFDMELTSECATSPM

For `CCOC(=O)CCCOP(=O)(OCCCC(=O)OCC)C(F)(F)c1ccc2sc(C(=O)N[C@H]3C[C@@H]4C[C@@H]4C[C@H]4CC[C@@H](C(=O)N5CC(C(=O)N6CCOCC6)C5)N4C3=O)cc2c1` [Compound 177, diethyl 4,4′-(((difluoro(2-(((3S,6S,7aS, 8aR,9aR)-3-(3-(morpholine-4-carbonyl)azetidine-1-carbonyl)-5-oxodecahydro-1H-cyclopropa[d]pyrrolo[1,2-a]azocin-6-yl)carbamoyl)benzo[b]thiophen-5-yl)methyl)phosphoryl)bis(oxy)) dibutyrate], the IC50 on pSTAT3 (pY705-STAT3) and against pSTAT6 (pY641-STAT6) was more than 3000 nM each time.

On to `CCCC(=O)SCCOP(=O)(OCCSC(=O)CCC)C(F)(F)c1ccc2sc(C(=O)N[C@H]3C[C@@H]4C[C@@H]4C[C@H]4CC[C@@H](C(=O)N5CC(C(=O)N6CCOCC6)C5)N4C3=O)cc2c1` [Compound 178, S,S′-((((difluoro(2-(((3S,6S,7aS, 8aR,9aR)-3-(3-(morpholine-4-carbonyl)azetidine-1-carbonyl)-5-oxodecahydro-1H-cyclopropa[d]pyrrolo[1,2-a]azocin-6-yl)carbamoyl)benzo[b]thiophen-5-yl)methyl)phosphoryl)bis(oxy))bis(ethane-2,1-diyl)) dibutane-thioate], for which the IC50 at pSTAT3 (pY705-STAT3) was less than 100 nM; on pSTAT6 (pY641-STAT6) it was 100 to 1000 nM.

For the molecule `CC(C)CC(=O)SCCOP(=O)(OCCSC(=O)CC(C)C)C(F)(F)c1ccc2sc(C(=O)N[C@H]3C[C@H]4C[C@H]4C[C@H]4CC[C@@H](C(=O)N5CC(n6ccnc6)C5)N4C3=O)cc2c1` [Compound 179, S,S′-(((((2-(((3S,6S,7aR, 8aS,9aR)-3-(3-(1H-imidazol-1-yl)azetidine-1-carbonyl)-5-oxodecahydro-1H-cyclopropa[d]pyrrolo[1,2-a]azocin-6-yl)carbamoyl)benzo[b]thiophen-5-yl)difluoromethyl)phosphoryl)bis(oxy))bis(ethane-2,1-diyl)) bis(3-methylbutane thioate)], the IC50 on pSTAT3 (pY705-STAT3) was less than 100 nM; against pSTAT6 (pY641-STAT6), more than 3000 nM.

For the molecule `CC(C)(C)C(=O)SCCOP(=O)(OCCSC(=O)C(C)(C)C)C(F)(F)c1ccc2sc(C(=O)NC3CC4CC4CC4CCC(C(=O)N5CC(n6ccnc6)C5)N4C3=O)cc2c1` [Compound 180, S,S′-(((((2-(((3S,6S,7aR, 8aS,9aR)-3-(3-(1H-imidazol-1-yl)azetidine-1-carbonyl)-5-oxodecahydro-1H-cyclopropa[d]pyrrolo[1,2-a]azocin-6-yl)carbamoyl)benzo[b]thiophen-5-yl)difluoromethyl)phosphoryl)bis(oxy))bis(ethane-2,1-diyl)) bis(2,2-dimethyl-propanethioate)], the values for the IC50 on pSTAT3 (pY705-STAT3) and on pSTAT6 (pY641-STAT6) were less than 100 nM and more than 3000 nM, respectively.

As for `CC(C)(C)C(=O)SCCOP(=O)(OCCSC(=O)C(C)(C)C)C(F)(F)c1ccc2sc(C(=O)N[C@H]3C[C@@H]4C[C@@H]4C[C@H]4CC[C@@H](C(=O)N5CC(n6ccnc6)C5)N4C3=O)cc2c1` [Compound 181, S,S′-(((((2-(((3S,6S,7aS, 8aR,9aR)-3-(3-(1H-imidazol-1-yl)azetidine-1-carbonyl)-5-oxodecahydro-1H-cyclopropa[d]pyrrolo[1,2-a]azocin-6-yl)carbamoyl)benzo[b]thiophen-5-yl)difluoromethyl)phosphoryl)bis(oxy))bis(ethane-2,1-diyl)) bis(2,2-dimethyl-propanethioate)], the values for the IC50 on pSTAT3 (pY705-STAT3) and against pSTAT6 (pY641-STAT6) were less than 100 nM and more than 3000 nM, respectively.

As to `CC(C)OC(=O)[C@@H](C)CNP(=O)(Oc1ccccc1)C(F)(F)c1ccc2sc(C(=O)N[C@H]3C[C@@H]4C[C@@H]4C[C@H]4CC[C@@H](C(=O)N5CC(C(=O)N6CCOCC6)C5)N4C3=O)cc2c1` (stereo partly drawn) [Compound 184, isopropyl (2S)-3-(((difluoro(2-(((3S,6S,7aS, 8aR,9aR)-3-(3-(morpholine-4-carbonyl)azetidine-1-carbonyl)-5-oxodecahydro-1H-cyclopropa [d]pyrrolo[1,2-a]azocin-6-yl)carbamoyl)benzo[b]thiophen-5-yl)methyl) (phenoxy)phosphoryl)amino)-2-methyl-propanoate], the IC50 on pSTAT3 (pY705-STAT3) and at pSTAT6 (pY641-STAT6) was more than 3000 nM in each case.

For `CC(C)CC(=O)SCCOP(=O)(Oc1ccccc1)C(F)(F)c1ccc2sc(C(=O)N[C@H]3C[C@@H]4C[C@@H]4C[C@H]4CC[C@@H](C(=O)N5CC(C(=O)N6CCOCC6)C5)N4C3=O)cc2c1` (stereo partly drawn) [Compound 185, S-(2-(((difluoro(2-(((3S,6S,7aS, 8aR,9aR)-3-(3-(morpholine-4-carbonyl)azetidine-1-carbonyl)-5-oxodecahydro-1H-cyclopropa[d]pyrrolo[1,2-a]azocin-6-yl)carbamoyl)benzo[b]thiophen-5-yl)methyl) (phenoxy)phosphoryl)oxy)ethyl) 3-methylbutane thioate], the IC50 at pSTAT3 (pY705-STAT3) is 100 to 1000 nM; against pSTAT6 (pY641-STAT6) it was more than 3000 nM.

For `CC(C)OC(=O)[C@H](C)NP(=O)(Oc1ccccc1)C(F)(F)c1ccc2sc(C(=O)N[C@H]3C[C@@H]4C[C@@H]4C[C@H]4CC[C@@H](C(=O)N5CC(C(=O)N6CCOCC6)C5)N4C3=O)cc2c1` (stereo partly drawn) [Compound 186, isopropyl ((difluoro(2-(((3S,6S,7aS, 8aR,9aR)-3-(3-(morpholine-4-carbonyl)azetidine-1-carbonyl)-5-oxodecahydro-1H-cyclopropa[d]pyrrolo[1,2-a]azocin-6-yl)carbamoyl)benzo[b]thiophen-5-yl)methyl) (phenoxy)phosphoryl)-L-alaninate], the IC50 on pSTAT3 (pY705-STAT3) and at pSTAT6 (pY641-STAT6) was more than 3000 nM each time.

Turning to `CC(C)(C)C(=O)OCOP(=O)(OCOC(=O)C(C)(C)C)C(F)(F)c1ccc2sc(C(=O)N[C@H]3C[C@H]4C[C@H]4C[C@H]4CC[C@@H](C(=O)N5CC(c6cccnc6)C5)N4C3=O)cc2c1` [Compound 187, (((difluoro(2-(((3S,6S,7aR, 8aS,9aR)-5-oxo-3-(3-(pyridin-3-yl)azetidine-1-carbonyl)decahydro-1H-cyclopropa[d]pyrrolo[1,2-a]azocin-6-yl)carbamoyl)benzo[b]thiophen-5-yl)methyl)phosphoryl)bis(oxy)) bis(methylene) bis(2,2-dimethyl-propanoate)], the IC50 at pSTAT3 (pY705-STAT3) is less than 100 nM; at pSTAT6 (pY641-STAT6), 100 to 1000 nM.

Regarding `CCCC(=O)SCCOP(=O)(OCCSC(=O)CCC)C(F)(F)c1ccc2sc(C(=O)N[C@H]3C[C@@H]4C[C@@H]4C[C@H]4CC[C@@H](C(=O)N5CC(n6ccnc6)C5)N4C3=O)cc2c1` [Compound 188, S,S′-(((((2-(((3S,6S,7aS, 8aR,9aR)-3-(3-(1H-imidazol-1-yl)azetidine-1-carbonyl)-5-oxodecahydro-1H-cyclopropa[d]pyrrolo[1,2-a]azocin-6-yl)carbamoyl)benzo[b]thiophen-5-yl)difluoromethyl)phosphoryl)bis(oxy))bis(ethane-2,1-diyl)) dibutanethioate], the IC50 was less than 100 nM on pSTAT3 (pY705-STAT3) and 100 to 1000 nM against pSTAT6 (pY641-STAT6).

On to `CC(C)OC(=O)OCOP(=O)(OCOC(=O)OC(C)C)C(F)(F)c1ccc2sc(C(=O)N[C@H]3C[C@H]4C[C@H]4C[C@H]4CC[C@@H](C(=O)N5CC(c6cccnc6)C5)N4C3=O)cc2c1` [Compound 189, (((difluoro(2-(((3S,6S,7aR, 8aS,9aR)-5-oxo-3-(3-(pyridin-3-yl)azetidine-1-carbonyl)decahydro-1H-cyclopropa[d]pyrrolo[1,2-a]azocin-6-yl)carbamoyl)benzo[b]thiophen-5-yl)methyl)phosphoryl)bis(oxy)) bis(methylene) diisopropyl bis(carbonate)], for which the IC50 on pSTAT3 (pY705-STAT3) is less than 100 nM; against pSTAT6 (pY641-STAT6) it was 1000 to 3000 nM.

On to `CC(C)CC(=O)SCCOP(=O)(Oc1ccccc1)C(F)(F)c1ccc2sc(C(=O)N[C@H]3C[C@H]4C[C@H]4C[C@H]4CC[C@@H](C(=O)N5CC(c6cccnc6)C5)N4C3=O)cc2c1` (stereo partly drawn) [Compound 193, S-(2-(((difluoro(2-(((3S,6S,7aR, 8aS,9aR)-5-oxo-3-(3-(pyridin-3-yl)azetidine-1-carbonyl)decahydro-1H-cyclopropa[d]pyrrolo[1,2-a]azocin-6-yl)carbamoyl)benzo[b]thiophen-5-yl)methyl) (phenoxy)phosphoryl)oxy)ethyl) 3-methylbutane thioate], for which the IC50 was less than 100 nM on pSTAT3 (pY705-STAT3) and more than 3000 nM against pSTAT6 (pY641-STAT6).

The values are drawn from patent publication US20250215030A1, “STAT MODULATORS AND USES THEREOF” (Recludix Pharma, Inc., priority 2022, published 2025).
